Laboratory results published in patent publication US20240254103A9, “NOVEL PYRIMIDINE DERIVATIVE, AND COMPOSITION FOR PREVENTING OR TREATING NEURODEGENERATIVE DISEASES AND CANCER, COMPRISING SAME” (WHAN IN PHARMACEUTICAL CO., LTD., priority 2020, published 2024).

Assays:
wild-type LRRK2 = molecular target: T1, wild-type LRRK2 (Homo sapiens, UniProt Q5S007); test: Inhibitory activity against LRRK2: competition binding to ligand-affinity beads, DNA-tagged kinase quantitated by qPCR; settings: 100 nM compound; % of ctrl; read-out: Remaining kinase activity(%) at 100 nM LRRK2(WT)
T1 construct: DNA tag for qPCR detection (not a peptide; the protein part that carries it is not described); made in house; host or cells: HEK 293 cells (the same paragraph also describes T7 phage grown in E. coli BL21)
How it was run: (§1)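 Human LRRK2 H970–E2527, wild type or G2019S, was expressed as DNA-tagged kinase (T7 phage in E. coli or HEK293) and competed for 1 h against a biotinylated ligand on streptavidin beads. Bound kinase was eluted with 0.5 µM free ligand and quantified by qPCR. Values are % of control at 100 nM (both forms) and at 10 and 50 nM (wild type).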

mutant LRRK2 (G2019S) = molecular target: T2, mutant LRRK2 (G2019S) (Homo sapiens, UniProt Q5S007, G2019S); test: as above; settings: 100 nM compound; % of ctrl; read-out: Remaining kinase activity(%) at 100 nM LRRK2(G2019Smutant)
T2 construct: DNA tag for qPCR detection (not a peptide; the protein part that carries it is not described); made in house; host or cells: HEK 293 cells (the same paragraph also describes T7 phage grown in E. coli BL21)
How it was run: as §1

T2 sequence (Q5S007 970-2527 G2019S): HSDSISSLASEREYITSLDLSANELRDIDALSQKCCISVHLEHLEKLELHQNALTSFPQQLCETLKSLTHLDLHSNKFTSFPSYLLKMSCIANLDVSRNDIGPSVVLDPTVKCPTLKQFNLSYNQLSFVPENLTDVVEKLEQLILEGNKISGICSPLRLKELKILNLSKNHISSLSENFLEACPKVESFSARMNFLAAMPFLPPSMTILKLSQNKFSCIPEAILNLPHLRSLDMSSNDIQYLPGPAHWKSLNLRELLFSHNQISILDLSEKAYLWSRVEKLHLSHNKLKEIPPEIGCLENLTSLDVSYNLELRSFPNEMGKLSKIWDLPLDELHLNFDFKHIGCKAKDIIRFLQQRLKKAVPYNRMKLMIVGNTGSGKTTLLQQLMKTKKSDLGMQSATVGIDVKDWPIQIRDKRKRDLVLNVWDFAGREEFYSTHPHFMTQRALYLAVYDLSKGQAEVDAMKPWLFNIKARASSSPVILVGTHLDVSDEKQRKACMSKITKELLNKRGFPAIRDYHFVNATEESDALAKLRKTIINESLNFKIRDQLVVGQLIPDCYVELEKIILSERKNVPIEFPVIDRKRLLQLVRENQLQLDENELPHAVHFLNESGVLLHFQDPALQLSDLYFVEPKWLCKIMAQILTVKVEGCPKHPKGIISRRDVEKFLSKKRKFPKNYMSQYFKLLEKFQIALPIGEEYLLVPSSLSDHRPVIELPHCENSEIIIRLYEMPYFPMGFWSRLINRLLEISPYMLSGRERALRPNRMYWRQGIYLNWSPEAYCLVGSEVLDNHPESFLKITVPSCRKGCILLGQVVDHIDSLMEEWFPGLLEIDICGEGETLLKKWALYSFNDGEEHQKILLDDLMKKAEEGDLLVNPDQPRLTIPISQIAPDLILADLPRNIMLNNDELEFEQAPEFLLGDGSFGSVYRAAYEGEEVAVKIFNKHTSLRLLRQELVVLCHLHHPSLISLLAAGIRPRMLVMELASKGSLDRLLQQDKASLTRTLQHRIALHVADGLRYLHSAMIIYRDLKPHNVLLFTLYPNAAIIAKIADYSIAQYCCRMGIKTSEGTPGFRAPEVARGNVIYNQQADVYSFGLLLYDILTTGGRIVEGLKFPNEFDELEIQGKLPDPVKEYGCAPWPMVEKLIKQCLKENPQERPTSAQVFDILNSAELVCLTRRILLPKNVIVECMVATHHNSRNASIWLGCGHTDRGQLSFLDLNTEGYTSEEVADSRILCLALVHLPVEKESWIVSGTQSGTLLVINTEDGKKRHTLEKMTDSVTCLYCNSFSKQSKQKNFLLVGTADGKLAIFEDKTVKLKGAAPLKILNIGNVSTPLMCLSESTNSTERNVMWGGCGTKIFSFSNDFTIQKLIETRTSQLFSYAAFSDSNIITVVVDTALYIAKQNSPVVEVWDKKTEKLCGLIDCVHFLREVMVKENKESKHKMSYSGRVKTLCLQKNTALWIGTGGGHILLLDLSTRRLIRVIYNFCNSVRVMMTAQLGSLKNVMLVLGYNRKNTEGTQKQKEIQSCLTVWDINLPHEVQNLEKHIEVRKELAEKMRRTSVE
T1 sequence (Q5S007 970-2527): as the sequence (Q5S007 970-2527 G2019S) above, with S1050G counted along it

SMILES | remaining binding at 0.1 µM (wild-type LRRK2) | remaining binding at 0.1 µM (mutant LRRK2 (G2019S))
COc1cc(C(=O)N2CCOCC2)ccc1Nc1ncc(Cl)c(-c2ccccc2)n1 [Comparative Compound 1, (4-((5-chloro-4-phenylpyrimidin-2-yl)amino)-3-methoxyphenyl)(morpholino)methanone, reference compound] | ≥ 50% | ≥ 50%
COc1cc(C(=O)N2CCOCC2)ccc1Nc1ncc(Cl)c(-c2cccnc2)n1 [Comparative Compound 2, (4-((5-chloro-4-(pyridin-3-yl)pyrimidin-2-yl)amino)-3-methoxyphenyl) (morpholino)methanone, reference compound] | ≥ 50% | ≥ 50%
COc1cc(C(=O)N2CCOCC2)ccc1Nc1ncc(Cl)c(-c2cccc([N+](=O)[O-])c2)n1 [Comparative Compound 3, (4-((5-chloro-4-(3-nitrophenyl)pyrimidin-2-yl)amino) -3-methoxyphenyl)(morpholino)methanone, reference compound] | ≥ 50% | ≥ 50%
COc1cc(C(=O)N2CCOCC2)ccc1Nc1ncc(Cl)c(-c2cnn(C)c2)n1 [Compound 1, (4-((5-chloro-4-(1-methyl-1H-pyrazol-4-yl)pyrimidin-2-yl)amino)-3-methoxyphenyl)(morpholino)methanone] | < 30% | < 30%
COc1cc(C(=O)N2CCC(N3CCOCC3)CC2)ccc1Nc1ncc(Cl)c(-c2cnn(C)c2)n1 [Compound 2, (4-((5-chloro-4-(1-methyl-1H-pyrazol-4-yl)pyrimidin-2-yl)amino)-3-methoxyphenyl) (4-morpholinopiperidin-1-yl)methanone] | < 10% | < 10%
COc1cc(C(=O)N2CCOCC2)ccc1Nc1ncc(Cl)c(-c2cnn(CCO)c2)n1 [Compound 4, (4-((5-chloro-4-(1-(2-hydroxyethyl)-1H-pyrazol-4-yl)pyrimidin-2-yl)amino)-3-methoxyphenyl)(morpholino)methanone] | < 30% | < 30%
COc1cc(C(=O)N2CCOCC2)ccc1Nc1ncc(Cl)c(-c2cnn(CCC#N)c2)n1 [Compound 5, 3-(4-(5-chloro-2-((2-methoxy-4-(morpholine-4-carbonyl)phenyl)amino)pyrimidin-4-yl)-1H-pyrazol-1-yl)propanenitrile] | < 10% | < 10%
COc1cc(C(=O)N2CCOCC2)ccc1Nc1ncc(Cl)c(-c2cnn(CC#N)c2)n1 [Compound 6, 2-(4-(5-chloro-2-((2-methoxy-4-(morpholine-4-carbonyl)phenyl)amino)pyrimidin-4-yl)-1H-pyrazol-1-yl)acetonitrile] | < 50% | < 30%
COc1cc(C(=O)N2CCOCC2)ccc1Nc1ncc(Cl)c(-c2cnn(C(C)CC#N)c2)n1 (stereo not drawn) [Compound 7, 3-(4-(5-chloro-2-((2-methoxy-4-(morpholine-4-carbonyl)phenyl)amino)pyrimidin-4-yl)-1H-pyrazol-1-yl)butanenitrile] | < 10% | < 10%
COc1cc(C(=O)N2CCOCC2)ccc1Nc1ncc(Cl)c(-c2cnn(S(C)(=O)=O)c2)n1 [Compound 10, (4-((5-chloro-4-(1-(methylsulfonyl)-1H-pyrazol-4-yl)pyrimidin-2-yl)amino)-3-methoxyphenyl)(morpholino)methanone] | < 30% | < 10%
COc1cc(C(=O)N2CCOCC2)ccc1Nc1ncc(Cl)c(-c2cnn(C(F)F)c2)n1 [Compound 15, (4-((5-chloro-4-(1-(difluoromethyl)-1H-pyrazol-4-yl)pyrimidin-2-yl)amino)-3-methoxyphenyl)(morpholino)methanone] | < 50% | < 30%
COCn1cc(-c2nc(Nc3ccc(C(=O)N4CCOCC4)cc3OC)ncc2Cl)cn1 [Compound 16, (4-((5-chloro-4-(1-(methoxymethyl)-1H-pyrazol-4-yl)pyrimidin-2-yl)amino)-3-methoxyphenyl)(morpholino)methanone] | < 30% | < 10%
COc1ccc(Cn2cc(-c3nc(Nc4ccc(C(=O)N5CCOCC5)cc4OC)ncc3Cl)cn2)cc1 [Compound 17, (4-((5-chloro-4-(1-(4-methoxybenzyl)-1H-pyrazol-4-yl)pyrimidin-2-yl)amino)-3-methoxyphenyl)(morpholino)methanone] | < 30% | < 50%
COc1cc(C(=O)N2CCOCC2)ccc1Nc1ncc(Cl)c(-c2cn[nH]c2)n1 [Compound 18, (4-((5-chloro-4-(1H-pyrazol-4-yl)pyrimidin-2-yl)amino)-3-methoxyphenyl)(morpholino)methanone] | < 30% | < 30%
COc1cc(C(=O)N2CCC(N3CCN(C)CC3)CC2)ccc1Nc1ncc(Cl)c(-c2cnn(C)c2)n1 [Compound 19, (4-((5-chloro-4-(1-methyl-1H-pyrazol-4-yl)pyrimidin-2-yl)amino)-3-methoxyphenyl)(4-(4-methylpiperazin-1-yl)piperidin-1-yl)methanone] | < 10% | < 10%
COc1cc(C(=O)N2CCOCC2)ccc1Nc1ncc(Cl)c(-c2cnn(C3CCOCC3)c2)n1 [Compound 20, (4-((5-chloro-4-(1-(tetrahydro-2H-pyran-4-yl)-1H-pyrazol-4-yl)pyrimidin-2-yl)amino)-3-methoxyphenyl)(morpholino)methanone] | < 10% | < 10%
COCCN(C)C(=O)c1ccc(Nc2ncc(Cl)c(-c3cnn(C)c3)n2)c(OC)c1 [Compound 21, 4-((5-chloro-4-(1-methyl-1H-pyrazol-4-yl)pyrimidin-2-yl)amino)-3-methoxy-N-(2-methoxyethyl)-N-methylbenzamide] | < 30% | < 30%
COc1cc(C(=O)N2CCCC2)ccc1Nc1ncc(Cl)c(-c2cnn(C)c2)n1 [Compound 22, (4-((5-chloro-4-(1-methyl-1H-pyrazol-4-yl)pyrimidin-2-yl)amino)-3-methoxyphenyl)(pyrrolidin-1-yl)methanone] | < 30% | < 50%
CCN(CCOC)C(=O)c1ccc(Nc2ncc(Cl)c(-c3cnn(C)c3)n2)c(OC)c1 [Compound 23, 4-((5-chloro-4-(1-methyl-1H-pyrazol-4-yl)pyrimidin-2-yl)amino)-N-ethyl-3-methoxy-N-(2-methoxyethyl)benzamide] | < 50% | < 50%
COc1cc(C(=O)NC(C)(C)CO)ccc1Nc1ncc(Cl)c(-c2cnn(C)c2)n1 [Compound 24, 4-((5-chloro-4-(1-methyl-1H-pyrazol-4-yl)pyrimidin-2-yl)amino)-N-(1-hydroxy-2-methylpropan-2-yl)-3-methoxybenzamide] | < 30% | < 50%
COc1cc(C(=O)NC(C)(C)C)ccc1Nc1ncc(Cl)c(-c2cnn(C)c2)n1 [Compound 25, N-(tert-butyl)-4-((5-chloro-4-(1-methyl-1H-pyrazol-4-yl)pyrimidin-2-yl)amino)-3-methoxybenzamide] | < 30% | < 50%
COc1cc(C(=O)NCC(C)(C)O)ccc1Nc1ncc(Cl)c(-c2cnn(C)c2)n1 [Compound 26, 4-((5-chloro-4-(1-methyl-1H-pyrazol-4-yl)pyrimidin-2-yl)amino)-N-(2-hydroxy-2-methylpropyl)-3-methoxybenzamide] | < 50% | < 50%
COc1cc(C(=O)N2CCOCC2)ccc1Nc1ncc(Cl)c(-c2cnn(C(C)(C)CC#N)c2)n1 [Compound 27, 3-(4-(5-chloro-2-((2-methoxy-4-(morpholine-4-carbonyl)phenyl)amino)pyrimidin-4-yl)-1H-pyrazol-1-yl)-3-methylbutanenitrile] | < 10% | < 10%
COCCn1cc(-c2nc(Nc3ccc(C(=O)N4CCOCC4)cc3OC)ncc2Cl)cn1 [Compound 28, (4-((5-chloro-4-(1-(2-methoxyethyl)-1H-pyrazol-4-yl)pyrimidin-2-yl)amino)-3-methoxyphenyl)(morpholino)methanone] | < 30% | < 30%
COc1cc(C(=O)N2CCOCC2)ccc1Nc1ncc(C(F)(F)F)c(-c2cnn(C3CCOCC3)c2)n1 [Compound 29, (3-methoxy-4-((4-(1-(tetrahydro-2H-pyran-4-yl)-1H-pyrazol-4-yl)-5-(trifluoromethyl)pyrimidin-2-yl)amino)phenyl)(morpholino)methanone] | < 50% | < 30%
COc1cc(C(=O)N2CCC(N3CCN(C)CC3)CC2)ccc1Nc1ncc(C(F)(F)F)c(-c2cnn(C)c2)n1 [Compound 31, (3-methoxy-4-((4-(1-methyl-1H-pyrazol-4-yl)-5-(trifluoromethyl)pyrimidin-2-yl)amino)phenyl)(4-(4-methylpiperazin-1-yl)piperidin-1-yl)methanone] | < 10% | < 30%
COc1cc(C(=O)N2CCC3(CC2)COC3)ccc1Nc1ncc(Cl)c(-c2cnn(C)c2)n1 [Compound 32, (4-((5-chloro-4-(1-methyl-1H-pyrazol-4-yl)pyrimidin-2-yl)amino)-3-methoxyphenyl)(2-oxa-7-azaspiro[3.5]nonan-7-yl)methanone] | < 50% | < 30%
